Experimental data taken from patent US9994862B2, “Rice resistant to HPPD and ACCase inhibiting herbicides” (priority 2011, dated 2018).
“Also recorded” adds a separate entry of the source.

Legend:
[1] = test system: mutant line ML0831266-03093; experiment: Mesotrione tolerance trials / herbicide bioassay; assay type: in vivo, rice
Description: After the initial screening of the “mutation population,” the lines with no damage were selected and tested in additional experiments using different rates of the herbicide. In particular, a rate response experiment was conducted in which two different rates of mesotrione were applied pre-emergence, plus an additional foliar application was also applied. […] Progeny of this designated ML0831266-03093 are maintained as a new line carrying resistance to mesotrione herbicide. Seeds are deposited under ATCC PTA-13620. The line (ML0831266-03093) is a source of resistance that is backcrossed into proprietary rice lines or used directly in breeding to develop new proprietary rice lines. The developed lines are a source of herbicide resistance for use in development of new hybrids that offer an alternative mode of action to control weeds in rice. Affording this opportunity to growers is of great value both in providing high yields and in extending the useful life of available weed control technologies. These herbicide resistant traits can be tracked through the simple application of herbicides to growing plants.
Selection of material inheriting mesotrione tolerance is accomplished by a simple herbicide bioassay. A high rate of mesotrione (at least 420 gm ai/ha) is applied allowing differentiation of heterozygous individuals from homozygous individuals and the tolerance level of the […] line from the inherent tolerance level in the background of some types of rice. In one example a rate of 105 gm ai/ha is applied followed three weeks later by a second application of 630 gm ai/ha. In another example a rate of 420 gm ai/ha is applied in a single application. Yet another example entails applying the herbicide at a rate of 630 gm ai/ha. Herbicide applications are done at the three to four leaf stage of seedling growth. The ideal situation is to have also planted near or within the plants to be selected a set of plants from the original mutant mesotrione tolerant donor line ML0831266-03093, (FIG. 18A) a row of plants of the wild-type of the […] line, P1003 (FIG. 18B), and a row of the line involved as the other parent in the cross (FIG. 18C). These control lines allow easy differentiation for inheritance of the tolerance provided by the ML0831266-03093 mutant line through comparison of the response in the plants to be selected with the control lines. Only plants that live and are relatively healthy will have inherited and be homozygous for the tolerance level provided by the ML0831266-03093 mutant line (FIG. 18A).
(§1) The mutant line is planted in rows or alternatively whole plots are planted and rows of the unmutated line (P1003) and other types of rice or whole plots are planted. Mesotrione is applied pre-emergence or alternatively it is applied post-emergence at the three to four leaf stage of the rice plants. Various rates of mesotrione are applied pre-emergence, pre-emergence followed by post-emergent, or post-emergent with a single or sequential application. Post-emergent applications are applied at the 3-4 leaf stage of the rice.
Seedlings of size 3 to 4 leaves are sprayed with mesotrione herbicide. In one set of 89 plants mesotrione is first applied at 105 gm ai/ha killing 23 plants. Both the mutant line control ML0831266-03093 and the unmutated line P1003 survived the herbicide application while the unmutated line R0146 was killed. […]

line ML0831265-01493 = experiment: Mesotrione tolerance trials / herbicide bioassay; assay type: in vivo, rice
Source text: as §1
With low rates (105 gm ai/ha) of mesotrione applied both the mutant line as well as the original unmutated line survive. However, other types of rice, such as the mutant line with ACCase tolerance ML0831265-01493 and the associated unmutated line R0146 are killed at these rates of mesotrione. […] The higher tolerance to mesotrione makes the line ML0831266-03093 of commercial value as both the tolerance can be controlled or bred into new varieties and it is of a high enough level to allow commercial weed control in rice with the application of mesotrione herbicide and possibly other HPPD inhibiting herbicides (FIG. 19A initial results, FIG. 19B new results after 1 year, and FIG. 22—trial results on various rice lines).

[2] = test system: permanent mutant population (lines derived from P1003, R0146, P1062); experiment: Mesotrione screening of the permanent mutant population; assay type: in vivo, rice; conditions: 255.1 gm ai per acre, within twelve hours after planting
Source text: A mutation breeding program was initiated to develop proprietary herbicide resistant/tolerant lines. A permanent mutant population was created by exposing approximately 10,000 seeds (estimated by the average weight of a kernel) of three rice lines including P1003, R0146, and P1062 to both mutagens sodium azide (AZ) and methyl-nitrosourea (MNU). The treated seeds were planted. Individual plants were harvested creating 8,281 potentially […] lines. The lines have been maintained as a permanent mutant population for trait screening.
Resistance to mesotrione herbicide was found by screening the permanent mutant population. All lines in the permanent mutant population were planted into a dry seed bed. Within twelve hours after planting mesotrione (Callisto®) was applied at a rate of 255.1 gm ai per acre. The field was immediately flushed with water and kept moist through periodic flushing. The seedlings grew, many were bleached white and all lines derived from R0146 died whereas plants lived from 21 lines derived from the P1003 and 2 derived from P1062 mutation populations. The HPPD gene was sequenced, and no genetic mutation was identified causing any amino acid substitutions (SEQ ID NOs: 1, 2, 3).

common rice weeds = experiment: Weed control by mesotrione in rice plots; assay type: in vivo; conditions: mesotrione alone; especially pre-plant or 2x the labeled rate of 210 gmai/ha
Description: FIG. 6A-6B is a photograph of results of trait tolerance trials; weed control by mesotrione herbicide applied pre-planting was evaluated; the plots were planted with a hybrid of the HPPD tolerant line ML0831266-03093; just before planting, the plot on the right FIG. 6B received an application of mesotrione at 210 gmai/ha; the plot on the left FIG. 6A had no herbicide applied either pre-plant or post-emergence; pictures were taken four weeks after planting showing differences in weed appearance.
Rice is tolerant to certain ACCase inhibitor herbicides, for example cyhalofop is registered for use in rice. However other ACCase herbicides kill or severely injure rice to varying degrees. […] The applied rates of both types of herbicides giving the weed control are well within the tolerance level of the respective ACCase and HPPD tolerant lines including the combined lines carrying tolerance to both HPPD and ACCase herbicides.
Further validation of the trait involved testing the mutant line ML0831266-03093 in the presence of common rice weeds. […] This level of grass weed control was completely unexpected as mesotrione is labeled for controlling broadleaf weeds in monocot crops.

CS(=O)(=O)c1ccc(C(=O)C2C(=O)CCCC2=O)c([N+](=O)[O-])c1 [mesotrione]
tolerance to mesotrione ([1]; 420 gm ai/ha): tolerant
tolerance to mesotrione in the presence of common rice weeds ([1]; applied rates of mesotrione, FIG. 6): completely tolerant
survival after mesotrione ([1]; higher rates): survives
survival after mesotrione ([1]; low rate 105 gm ai/ha): survived
response of the rice to mesotrione ([1]; one application at 105 gai/ha followed by a second application of 630 gai/ha): tolerant; also recorded: little damage
sensitivity to mesotrione (line ML0831265-01493; in vivo): highly susceptible; also recorded: highly sensitive
survival after mesotrione (line ML0831265-01493; low rate 105 gm ai/ha): killed
number of lines derived from P1003 with plants that lived [2]: 21 lines
number of lines derived from P1062 with plants that lived [2]: 2 lines
response of lines derived from R0146 [2]: died
weed control by mesotrione (common rice weeds): well controlled; also recorded: prevalent control; also recorded: Control of common weeds in rice was also achieved
